Data set [1] has as its system Bacillus subtilis ATCC6633. The experiment in a line: MIC by agar dilution method, Bacillus subtilis ATCC6633. It is filed as cell-based. The conditions noted are these: read-out: minimum inhibitory concentration (MIC).
The next data set has as its system Staph. aureus ATCC6538P. Description: MIC by agar dilution method, Staph. aureus ATCC6538P. Type of data set: cell-based. The conditions noted are these: Staphylococcus aureus, read-out: minimum inhibitory concentration (MIC).
The subject of a further data set is Staph. aureus MS27. The experiment in a line: MIC by agar dilution method, Staph. aureus MS27. Type of data set: cell-based. The conditions noted are these: Staphylococcus aureus, read-out: minimum inhibitory concentration (MIC).
A further data set deals with E. coli W3630RGN14. The experiment in a line: MIC by agar dilution method, E. coli W3630RGN14. It is filed as cell-based. The conditions noted are these: Escherichia coli, W3630RGN14, read-out: minimum inhibitory concentration (MIC).
A short description of another data set: Solubility. Type of data set: physicochemical.
A further data set relates to Shigella sonnei E33. Description: MIC by agar dilution method, Shigella sonnei E33. Type of data set: cell-based. The conditions noted are these: read-out: minimum inhibitory concentration (MIC).
Data set [2] concerns Pseudo. aeruginosa IAM1095. Description: MIC by agar dilution method, Pseudo. aeruginosa IAM1095. It is filed as cell-based. The conditions noted are these: Pseudomonas aeruginosa, read-out: minimum inhibitory concentration (MIC).
The test system of data set [3] is Enterobac. aerogenes 0655. The experiment in a line: MIC by agar dilution method, Enterobac. aerogenes 0655. Type of data set: cell-based. The conditions noted are these: read-out: minimum inhibitory concentration (MIC).
The next data set has as its system E. coli W3630. The experiment in a line: MIC by agar dilution method, E. coli W3630. Type of data set: cell-based. The conditions noted are these: Escherichia coli, read-out: minimum inhibitory concentration (MIC).
Data set [4] concerns Salm. enteritidis Gaertner. The experiment in a line: MIC by agar dilution method, Salm. enteritidis Gaertner. Type of data set: cell-based. The conditions noted are these: Salmonella enterica, read-out: minimum inhibitory concentration (MIC).
The subject of the next data set is E. coli NIHJ-JC2. Description: MIC by agar dilution method, E. coli NIHJ-JC2. It is filed as cell-based. The conditions noted are these: Escherichia coli, NIHJJC2, read-out: minimum inhibitory concentration (MIC).
Another data set deals with Enterobac. cloacae GN336. The experiment in a line: MIC by agar dilution method, Enterobac. cloacae GN336. Type of data set: cell-based. The conditions noted are these: read-out: minimum inhibitory concentration (MIC).
The next data set concerns Cit. freundii GN346. Description: MIC by agar dilution method, Cit. freundii GN346. It is filed as cell-based. The conditions noted are these: Citrobacter freundii, read-out: minimum inhibitory concentration (MIC).
A further data set concerns Staph. aureus 0119. Description: MIC by agar dilution method, Staph. aureus 0119. It is filed as cell-based. The conditions noted are these: Staphylococcus aureus, read-out: minimum inhibitory concentration (MIC).
The next data set has as its system Strept. pyogenes N.Y. 5. The experiment in a line: MIC by agar dilution method, Strept. pyogenes N.Y. 5. It is filed as cell-based. The conditions noted are these: Streptococcus pyogenes, read-out: minimum inhibitory concentration (MIC).
The test system of a further data set is Serratia marcescens. The experiment in a line: MIC by agar dilution method, Serratia marcescens. The conditions noted are these: read-out: minimum inhibitory concentration (MIC). Type of data set: cell-based.
In data set [5] the test system is Kleb. pneumoniae ATCC10031. The experiment in a line: MIC by agar dilution method, Kleb. pneumoniae ATCC10031. The conditions noted are these: Klebsiella pneumoniae, read-out: minimum inhibitory concentration (MIC). It is filed as cell-based.
The test system of the next data set is Proteus rettgeri ACR. The experiment in a line: MIC by agar dilution method, Proteus rettgeri ACR. Type of data set: cell-based. The conditions noted are these: Providencia rettgeri, read-out: minimum inhibitory concentration (MIC).
In the next data set the test system is Proteus morganii 0239. The experiment in a line: MIC by agar dilution method, Proteus morganii 0239. Type of data set: cell-based. The conditions noted are these: Morganella morganii, read-out: minimum inhibitory concentration (MIC).
Data set [6] relates to Staph. epidermidis sp-al-1. Description: MIC by agar dilution method, Staph. epidermidis sp-al-1. Type of data set: cell-based. The conditions noted are these: Staphylococcus epidermidis, SPAL1, read-out: minimum inhibitory concentration (MIC).

Our source for the MIC and Solubility values is US4517296A, “Antibiotic acmimycin and its production” (Toyo Jozo Kabushiki Kaisha, priority 1982, dated 1985).

≈ marks a conversion by molar mass, not a printed value.

For the compound `CNC1C(O)C(NC)C2OC3(O)C(OC)=CC(C)OC3OC2C1O` (stereo not drawn) [acmimycin], the MIC in data set [1] was 25 µg/mL (≈ 72.2 µM); in the data set with Staph. aureus ATCC6538P, 100 µg/mL (≈ 289 µM); with Staph. aureus MS27 it was 100 µg/mL (≈ 289 µM); in the data set with E. coli W3630RGN14, over 100 µg/mL; in the data set on Shigella sonnei E33 it was 25 µg/mL (≈ 72.2 µM); in data set [2] it was over 100 µg/mL. The MIC in data set [3] is over 100 µg/mL; with E. coli W3630, 25 µg/mL (≈ 72.2 µM); in data set [4], 25 µg/mL (≈ 72.2 µM); in the data set with E. coli NIHJ-JC2, 50 µg/mL (≈ 144 µM); in the data set on Enterobac. cloacae GN336, 50 µg/mL (≈ 144 µM); in the data set on Cit. freundii GN346, over 100 µg/mL. The MIC in the data set with Staph. aureus 0119 is over 100 µg/mL; in the data set with Strept. pyogenes N.Y. 5, 3.1 µg/mL (≈ 8.95 µM); in the data set with Serratia marcescens it was 25 µg/mL (≈ 72.2 µM); in data set [5], 12.5 µg/mL (≈ 36.1 µM); in the data set on Proteus rettgeri ACR, 100 µg/mL (≈ 289 µM); with Proteus morganii 0239, over 100 µg/mL. In addition, the MIC in [6] was 50 µg/mL (≈ 144 µM). In addition, the Solubility result in the data set “Solubility” (in acetone) is “insoluble”; in “Solubility” (in benzene) it was “insoluble”; in the data set “Solubility” (in ethyl acetate), “insoluble”; in the data set “Solubility” (in lower alcohols such as methanol), “slightly soluble”; in the data set “Solubility” (in water) it was “soluble”.
